This is an account of results in patent publication EP0312157A2, “Tetrapeptide renin inhibitors having a novel c-terminal amino acid” (Merck & Co., Inc., priority 1987, dated 1989).

The target of this test is T1, renin (Homo sapiens, UniProt P00797).
T1 sequence (P00797 67-406): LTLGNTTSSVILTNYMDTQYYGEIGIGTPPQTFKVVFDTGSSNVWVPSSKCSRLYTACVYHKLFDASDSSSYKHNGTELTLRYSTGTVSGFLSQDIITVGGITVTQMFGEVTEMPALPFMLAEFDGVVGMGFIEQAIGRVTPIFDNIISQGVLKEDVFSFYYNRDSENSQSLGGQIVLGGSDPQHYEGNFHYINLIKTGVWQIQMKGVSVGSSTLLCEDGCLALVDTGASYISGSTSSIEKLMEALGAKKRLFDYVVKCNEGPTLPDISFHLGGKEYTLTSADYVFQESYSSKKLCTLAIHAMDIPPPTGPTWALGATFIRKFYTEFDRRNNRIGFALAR
The test can be described thus: renin inhibition, IC50 (method not described). The class given is biochemical.

Where a name gives a salt, the structure may show the parent alone.

In general, IC50 refers to the concentration needed to halve the response being measured. As for `CC(C)(C)OC(=O)N[C@@H](Cc1ccccc1)C(=O)N[C@@H](Cc1c[nH]cn1)C(=O)N[C@@H](CC1CCCCC1)[C@@H](O)CC(=O)N[C@@H](CCCCN)C(=O)NCc1ccncc1` [Example 1, N^α-t-butoxycarbonyl-L-Phenylalanyl-L-histidyl-(3S,4S)-4-amino-5-cyclohexyl-3-hydroxypentanoyl-L-lysyl-4-(aminomethyl)pyridine amide hydrochloride], it took 0.038 µM to reach half-maximal inhibition (IC50). That is a double-digit nanomolar value.
`CC(C)(C)OC(=O)N[C@@H](Cc1ccccc1)C(=O)N[C@@H](Cc1c[nH]cn1)C(=O)N[C@@H](CC1CCCCC1)[C@@H](O)CC(=O)N[C@@H](CCCCN)C(=O)NCC1CCNCC1` [Example 2, N^α-t-butoxycarbonyl-L-phenylalanyl-L-histidyl-{3S,4S)-4-amino-5-cyclohexyl-3-hydroxy-pentanoyl-L-lysyl-4-(aminomethyl)-piperidinamide dihydrochloride]: inhibition was half-maximal at 0.338 µM (IC50).
The figure for `CN(CCc1ccccn1)C(=O)[C@H](CCCCN)NC(=O)C[C@H](O)[C@H](CC1CCCCC1)NC(=O)[C@H](Cc1c[nH]cn1)NC(=O)[C@H](Cc1ccccc1)NC(=O)OC(C)(C)C` [Example 5, N^α-t-butoxycarbonyl-L-phenylalanyl-L-histidyl-(3S,4S)-4-amino-5-cyclohexyl-3-hydroxypentanoyl-L-lysyl-2-(2-methylaminoethyl)-pyridinamide acetate] is 0.225 µM.
The figure for `COc1ccc(C[C@H](NC(=O)OC(C)(C)C)C(=O)N[C@@H](Cc2c[nH]cn2)C(=O)N[C@@H](CC2CCCCC2)[C@@H](O)CC(=O)N[C@@H](CCCCN)C(=O)NCc2ccncc2)cc1` [Example 6, N^α-t-butoxycarbonyl-O-methyl-L-tyrosyl-L-histidyl-(3S,4S)-4-amino-5-cyclohexyl-3-hydroxy-pentanoyl-L-lysyl-4-(aminomethyl)pyridine amide] is 0.042 µM; for `CC(C)(C)OC(=O)N[C@@H](Cc1ccccc1)C(=O)N[C@@H](Cc1c[nH]cn1)C(=O)N[C@@H](CC1CCCCC1)[C@@H](O)CC(=O)N[C@@H](CCCCN)C(=O)N[C@H]1CCCCNC1=O` [Example 9, N^α-t-butoxycarbonyl-L-phenylalanyl-L-histidyl-(3S,4S)-4-amino-5-cyclohexyl-3-hydroxypentanoyl-L-lysyl-L-3-amino-2-oxoazepine amide hydrochloride] it is 0.0264 µM; for `CC(C)(C)OC(=O)N[C@@H](Cc1ccccc1)C(=O)N[C@@H](Cc1c[nH]cn1)C(=O)N[C@@H](CC1CCCCC1)[C@@H](O)CC(=O)N[C@@H](CN)C(=O)NCc1ccncc1` [Example 10, N^α-t-butoxycarbonyl-L-phenylalanyl-L-histidyl-(3S,4S)-4-amino-5-cyclohexyl-3-hydroxypentanoyl-L-2,4-diaminopropionyl-4-(aminomethyl)pyridine amide hydrochloride] it is 0.037 µM.
The figure for `NCCCC[C@H](NC(=O)C[C@H](O)[C@H](CC1CCCCC1)NC(=O)[C@H](Cc1c[nH]cn1)NC(=O)[C@H](Cc1ccccc1)NC(=O)N1CCOCC1)C(=O)NCc1ccncc1` [Example 23, N-[(Morpholin-4-yl)carbonyl]Phe-His-ACHPA-Lys-NHCH2(pyridin-4-y1)] is 0.012 µM; for `CC(C)(C)OC(=O)NCCOC(=O)N[C@@H](Cc1ccccc1)C(=O)N[C@@H](Cc1c[nH]cn1)C(=O)N[C@@H](CC1CCCCC1)[C@@H](O)CC(=O)N[C@@H](CCCCN)C(=O)NCC1CCNCC1` [Example 26, Boc-NHCH2CH2OCO-Phe-His-ACHPA-Lys-NHCH2(piperidin-4-yl)] it is 0.039 µM; for `CC(C)S(=O)(=O)N[C@@H](Cc1ccccc1)C(=O)N[C@@H](Cc1c[nH]cn1)C(=O)N[C@@H](CC1CCCCC1)[C@@H](O)CC(=O)N[C@@H](CCCCN)C(=O)NCC1CCNCC1` [Example 27, i-PrSO2-Phe-His-ACHPA-Lys-CH2(piperidin-4-yl)] it is 0.159 µM.
“N^α-t-butoxycarbonyl-L-phenylalanyl-L-histidyl-(3S,4S)-4-amino-5-cyclohexyl-3-hydroxypentanoyl-L-lysyl-N-(2-aminoethyl)-morpholine amide dihydrochloride [Example 12]”: the IC50 stood at 0.0689 µM.
